Data taken from US20250041312A1, “METHODS OF ADMINISTERING A MODULATOR OF HEMOGLOBIN” (Global Blood Therapeutics, Inc., priority 2021, published 2025).
Where two headings read alike, the source gives them in different places. Marks after values point to notes of the source that are not given here.

Legend:
hemoglobin [1] = molecular target: T1, hemoglobin (Homo sapiens, UniProt P68871+P69905, E7V); assay: Percent Hb occupancy in SCD patients (single dose, MAD-1, MAD-2, MAD-3); type: in vivo; conditions: for receptor occupancy at 150 mg / receptor occupancy at 50 mg / receptor occupancy at 100 mg: human; for receptor occupancy at 50 mg: 50 mg QD × 5 weeks (MAD-1); for receptor occupancy at 100 mg: 100 mg QD × 3 weeks (MAD-2)
T1 construct: divided by the molar concentration of hemoglobin in RBCs; endogenous in cells; host or cells: red blood cells / blood of patients with SCD (HbSS)
Protocol: (§1) In some embodiments, the therapeutically effective amount is determined by measuring the percent of hemoglobin occupied by the compound, i.e., the percent Hb occupancy. The percent Hb occupancy is a measure of target engagement defined as the percentage of hemoglobin bound by a compound (e.g., Compound I) calculated as the molar concentration of the compound (e.g., Compound I) in RBCs divided by the molar concentration of hemoglobin in RBCs (the mean corpuscular hemoglobin concentration calculated from the hematology panel). The values for concentration of a compound (e.g., Compound I) in RBCs is calculated from the concentrations in whole blood and plasma, and the hematocrit.
(§2) After a washout period of at least 56 days (so that elimination PK of Compound I could be assessed), the patients were administered a loading dose of 300 mg per day of Compound I for one day followed by 200 mg per day of Compound I for one day, and then were administered a maintenance dose of 50 mg per day of Compound I for five weeks (“MAD-1 Cohort”). The same patients then received another loading dose of 500 mg per day of Compound I for one day followed by 400 mg per day of Compound I for one day, and then were administered another maintenance dose of 100 mg per day of Compound I for three weeks (“MAD-2 Cohort”). The total treatment period of the MAD-1 Cohort and MAD-2 Cohort was 8 weeks.
(§3) Following the conclusion of the MAD-2 study and a washout period of about 8 months, the selected patients (n=4) were administered a loading dose of 300 mg BID for 4 days, followed thereafter by a maintenance dose of 150 mg QD (MAD-3 Cohort).

hemoglobin [2] = molecular target: T2, hemoglobin (Homo sapiens, UniProt P68871+P69905); assay: Percent Hb occupancy after repeated administration, healthy volunteers; type: in vivo
T2 construct: divided by the molar concentration of hemoglobin in RBCs; endogenous in cells; host or cells: red blood cells of healthy volunteers (in vivo)
Protocol: as §1
Another study was initiated in healthy volunteer aged 18-55 years old to evaluate the safety and tolerability of multiple ascending doses of Compound I. Four cohorts of 10 subjects each (n=7 Compound I, n=3 placebo) were evaluated in a sequential double-blind manner. To reach steady state levels each subject received a loading dose regimen for 3 or 4 days followed by once daily medication for up to 14 days. Primary endpoints were safety and tolerability; key secondary endpoints included PK and effect on electrocardiogram (ECG) parameters. Table 7 below provides an overview of the doses of Compound I or placebo that were used in each cohort.
Preliminary whole blood PK parameters (geometric mean and % CV) and hemoglobin occupancy in healthy volunteers of the 15 mg, 25 mg, 50 mg, and 75 mg MAD cohorts are summarized in Table 10.

[3] = SCD cohort safety (TEAEs); type: in vivo, human
Protocol: as §2
Primary endpoints were safety and tolerability. Key secondary endpoints included PK and the relationship between time-matched Compound I concentrations and changes in clinical measures of anemia and hemolysis from baseline.
The majority of treatment emergent adverse events were grade 1 or 2 and unrelated to study drug.
as §3

[4] = SCD, read-out: Hemoglobin Occupancy (%) at Cmax, mean
[5] = SCD, read-out: Hemoglobin Occupancy (%) at Cmin, mean
[6] = MAD-3 SCD patients N=4 (300 mg BID x 4 days, then 150 mg QD)
[7] = SCD N=6, single dose and multiple dose portions (Table 13A)
[8] = SCD n=6, single dose, MAD-1 (50 mg qd) and MAD-2 (100 mg qd) (Table 13B)

% Hb occupancy based on Cmax (hemoglobin [1]; SCD single 100 mg, mean): 3.3%
patients who achieved Hb occupancy >40% (hemoglobin [1]; SCD, 100 mg dose level): two out of six
mean Hb occupancy (hemoglobin [1]; adults with SCD, maintenance doses 100 mg and 150 mg QD): > 30%
receptor occupancy at 150 mg (hemoglobin [1]; MAD-3 (150 mg QD) week 6, SCD patient 0001): 48%
receptor occupancy at 150 mg (hemoglobin [1]; MAD-3 (150 mg QD) week 6, SCD patient 0003 (did not adhere to regimen)): 7%
receptor occupancy at 150 mg (hemoglobin [1]; MAD-3 (150 mg QD) week 6, SCD patient 0004 (Hb and hematocrit increases lower the occupancy value)): 31%
receptor occupancy at 150 mg (hemoglobin [1]; MAD-3 (150 mg QD) week 6, SCD patient 0005): 46%
receptor occupancy at 50 mg (hemoglobin [1]; [4]): 17.7%
receptor occupancy at 50 mg (hemoglobin [1]; [5]): 15.3%
receptor occupancy at 100 mg (hemoglobin [1]; [4]): 32.6%
receptor occupancy at 100 mg (hemoglobin [1]; [5]): 29.8%
receptor occupancy at 15 mg (hemoglobin [2]; HV MAD Day 14, 15 mg QD maintenance (loading 200 mg x 3 days)): 16%
receptor occupancy at 25 mg (hemoglobin [2]; HV MAD Day 14, 25 mg QD maintenance (loading 200 mg x 3 days)): 16.3%
receptor occupancy at 50 mg (hemoglobin [2]; HV MAD Day 14, 50 mg QD maintenance (loading 500/400/400 mg)): 25.8%
receptor occupancy at 75 mg (hemoglobin [2]; HV MAD Day 14, 75 mg QD maintenance (loading 500/500/500/400 mg)): 35.2%
Structure (SMILES): O=Cc1c(O)cccc1OC[C@@H]1COCCN1C(=O)c1cccnc1CCO [Compound I, (S)-2-hydroxy-6-((4-(2-(2-hydroxyethyl)nicotinoyl)morpholin-3-yl)methoxy)benzaldehyde]
Number of SAEs [3, 6]: 0
Number of TEAEs [3, 6]: 6
Number of TEAEs grade ≥ 3 [3, 6]: 0
Number of TEAEs leading to study drug discontinuation [3, 6]: 0
Number of drug-related TEAEs [3, 6]: 1
Number of TEAEs [3, 7]: 24
Number of TEAEs grade ≥ 3 [3, 7]: 5
Number of TEAEs leading to study drug discontinuation [3, 7]: 0
Number of drug-related TEAEs ([3]; SCD N=6, single dose and multiple dose portions (Table 13A), 1 grade 2 headache, 2 grade 1 diarrhea): 3^a
Number of SAEs ([3]; SCD N=6, single dose and multiple dose portions (Table 13A), SAEs were grade 3 VOCs): 2^b
safety and tolerability ([3]; SCD cohort, single dose portion and multiple ascending dose phases): safe and well tolerated
Number of SAEs [3, 8]: 3
Number of TEAEs [3, 8]: 33
Number of TEAEs grade ≥ 3 [3, 8]: 7
Number of TEAEs leading to study drug discontinuation [3, 8]: 0
Number of drug-related TEAEs [3, 8]: 4
tolerability ([3]; adults with SCD, daily maintenance doses of 150 mg): well tolerated
